Measurements reported in US20190330167A1, “ACTIVATORS OF HIV LATENCY” (priority 2016, published 2019).

How the values were obtained:
[1] = tested on: HIV-1 gene expression in J.Lat10.6 latently infected T-cell line; assay: cells; assay type: cell-based
Method: The J.Lat10.6 latently infected T-cell line was treated with 4 compounds of the present invention, DP#6 (Compound 41), DP#14 (Compound 7), DP#18 (Compound 65), and DP#19 (Compound 73) and reactivated for 48 hrs. HIV-1 reactivation was measured by flowcytometry for GFP expression. Error bars represent standard deviation of n=3 experiments.
FIG. 45. […] The J.Lat10.6 model of HIV-1 latency was treated with JQ1 (+) and DP#14 (Compound 7) alone at 10 μM and in combination, and the HIV-1 gene expression measured 48 hrs post treatment. Error bars represent standard deviation of n=3 experiments. OPTI represents media alone, without DP#14.
FIG. 47. […] The J.Lat10.6 model of HIV-1 latency was treated with PFI-1 and DP#14 alone at 10 μM and in combination, and the HIV-1 gene expression measured 48 hrs post treatment. Error bars represent standard deviation of n=3 experiments. OPTI represents media alone, without DP#14.
Compounds were also evaluated in a dose ranging titration with HIV latently infected cell lines (J.Lat 6.3 and 10.6). The specificity of the selected compounds in these cell line models, were measured by inserting a CMV-DS.Red reporter into these cells to co-ordinately measure HIV specific LTR-Green fluorescent protein and non-specific DS.Red expression during FACS analysis.
The J.Lat model of HIV-1 latency is a well-established model used widely and is described in detail in the following paper:
HIV reproducibly establishes a latent infection after acute infection of T cells in vitro, Eric Verdin et al, The EMBO Journal Vol. 22 No. 8 pp 1868-1877, 2003

[2] = tested on: J.Lat10.6 T-cell line; assay: Dose dependent toxicity in the J.Lat model; assay type: cell-based; details: dosed as high as 40 μM

O=C(CCCOc1ccccc1)Nc1ncc(Br)s1 [Compound 7]
IC50 ([1]; Human immunodeficiency virus 1, J-Lat 10.6, 48 h, read-out: IC50 for reactivation of HIV-1 gene expression): ~4.5 µM | percent of the cells treated with reactivated HIV-1 gene expression ([1]; J.Lat10.6 model, alone at 10 μM and in combination, 48 hrs post treatment): 2.4% | dose dependent toxicity [2]: no such toxicity
